From US7655701B2, “Cycloalkylidene-(ortho substituted phenyl)-acetonitriles and their use as odorants” (Givaudan SA, priority 2005, dated 2010)

experiment: Determination of GC-odor threshold values; settings: gas chromatograph with sniff port, panel of trained evaluators; absolute amount delivered at the sniff port
Protocol: According to standard procedures known to the person skilled in the art, threshold values for volatile perfumery compounds are determined on a gas chromatograph equipped with a sniff port by a panel of trained evaluators. The lowest concentration smelled by each panellist is recorded as the individual threshold value expressed in ng (absolute amount of compound delivered at the sniff port).
Under identical conditions the odour threshold value for the individual compounds was measured.

First: Cc1ccccc1C(C#N)=C1CCCCC1 [Example 1, Cyclohexylidene-o-tolyl-acetonitrile]
Second: N#CC(=C1CCCCC1)c1ccccc1 [Peonile ®, cyclohexylidene-phenyl-acetonitrile]
The “odour threshold value geometric mean” value of the first is lower: 0.12 ng for the first, 0.53 ng for the second.

Compared with `Cc1ccc(C(C#N)=C2CCCCC2)cc1` [Example 2, Cyclohexylidene-p-tolyl-acetonitrile], `Cc1cccc(C(C#N)=C2CCCCC2)c1` [Example 4, Cyclohexylidene-m-tolyl-acetonitrile] is lower in “odour threshold value geometric mean” value: 2.91 ng for the first, 1.08 ng for the second.
